Reference: patent US10287255B2, “Compounds as histone deacetylase 6 inhibitors and pharmaceutical compositions comprising the same” (CHONG KUN DANG PHARMACEUTICAL CORP., priority 2014, dated 2019)

Tests used:
human recombinant HDAC6 = biological target: T1, human recombinant HDAC6 (Homo sapiens, UniProt Q9UBN7); assay: HDAC6 enzyme activity inhibition assay (in vitro, fluorimetric); format: biochemical; settings: for HDAC6 selectivity (fold): HDAC6 selectivity over HDAC1; for IC50: human recombinant HDAC6, fluorimetric kit, same protocol as HDAC1
T1 construct: purchased Calbiochem 382180
T1 sequence (Q9UBN7 1-1215): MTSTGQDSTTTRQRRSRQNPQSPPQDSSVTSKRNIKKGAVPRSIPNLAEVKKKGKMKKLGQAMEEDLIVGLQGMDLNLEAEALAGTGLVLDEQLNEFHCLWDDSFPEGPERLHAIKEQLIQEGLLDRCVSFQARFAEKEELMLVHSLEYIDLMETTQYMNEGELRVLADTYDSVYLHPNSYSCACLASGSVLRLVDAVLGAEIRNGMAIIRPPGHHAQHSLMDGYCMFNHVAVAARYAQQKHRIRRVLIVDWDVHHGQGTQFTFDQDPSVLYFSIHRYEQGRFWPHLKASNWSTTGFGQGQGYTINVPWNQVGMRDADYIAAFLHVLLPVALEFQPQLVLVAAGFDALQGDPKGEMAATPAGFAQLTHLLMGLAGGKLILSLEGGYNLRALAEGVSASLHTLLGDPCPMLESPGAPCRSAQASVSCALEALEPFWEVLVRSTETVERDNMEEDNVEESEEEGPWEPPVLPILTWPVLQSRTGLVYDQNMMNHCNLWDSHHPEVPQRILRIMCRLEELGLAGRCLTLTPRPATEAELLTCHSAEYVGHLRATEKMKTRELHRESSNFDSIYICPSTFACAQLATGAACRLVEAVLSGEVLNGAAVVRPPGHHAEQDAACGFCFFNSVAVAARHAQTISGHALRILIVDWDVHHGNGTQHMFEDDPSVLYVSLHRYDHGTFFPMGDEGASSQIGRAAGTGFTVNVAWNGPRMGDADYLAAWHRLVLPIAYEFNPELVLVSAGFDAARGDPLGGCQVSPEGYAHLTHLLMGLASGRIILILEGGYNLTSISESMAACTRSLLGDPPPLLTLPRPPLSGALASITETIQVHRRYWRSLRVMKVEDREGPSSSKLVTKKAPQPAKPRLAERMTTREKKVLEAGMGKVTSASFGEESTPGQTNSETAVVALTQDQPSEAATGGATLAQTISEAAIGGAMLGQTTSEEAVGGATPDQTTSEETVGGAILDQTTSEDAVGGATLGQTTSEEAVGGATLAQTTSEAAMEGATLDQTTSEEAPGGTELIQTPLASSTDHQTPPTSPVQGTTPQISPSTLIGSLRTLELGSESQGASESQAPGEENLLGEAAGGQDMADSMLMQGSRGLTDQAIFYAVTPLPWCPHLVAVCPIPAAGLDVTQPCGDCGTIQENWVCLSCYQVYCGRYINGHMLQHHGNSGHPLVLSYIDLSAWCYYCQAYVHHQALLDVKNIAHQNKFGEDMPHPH
Outline: (§1)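 Human recombinant enzyme (0.3 μg for HDAC1) reacted with 10 μM Fluor de Lys-SIRT1 substrate and 5-fold compound dilutions at 30 °C for 60 min, then developer for 30 min. Fluorescence read at Ex 360/Em 460; IC50 calculated. HDAC6 run by the same protocol.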

human recombinant HDAC1 = biological target: T2, human recombinant HDAC1 (Homo sapiens, UniProt Q13547); assay: HDAC1 enzyme activity inhibition assay (in vitro, fluorimetric); format: biochemical; settings: human recombinant HDAC1, fluorimetric kit, 30° C. 60 minutes
T2 construct: purchased Enzo Life Science BML-SE456
Outline: as §1

T2 sequence (Q13547 whole entry): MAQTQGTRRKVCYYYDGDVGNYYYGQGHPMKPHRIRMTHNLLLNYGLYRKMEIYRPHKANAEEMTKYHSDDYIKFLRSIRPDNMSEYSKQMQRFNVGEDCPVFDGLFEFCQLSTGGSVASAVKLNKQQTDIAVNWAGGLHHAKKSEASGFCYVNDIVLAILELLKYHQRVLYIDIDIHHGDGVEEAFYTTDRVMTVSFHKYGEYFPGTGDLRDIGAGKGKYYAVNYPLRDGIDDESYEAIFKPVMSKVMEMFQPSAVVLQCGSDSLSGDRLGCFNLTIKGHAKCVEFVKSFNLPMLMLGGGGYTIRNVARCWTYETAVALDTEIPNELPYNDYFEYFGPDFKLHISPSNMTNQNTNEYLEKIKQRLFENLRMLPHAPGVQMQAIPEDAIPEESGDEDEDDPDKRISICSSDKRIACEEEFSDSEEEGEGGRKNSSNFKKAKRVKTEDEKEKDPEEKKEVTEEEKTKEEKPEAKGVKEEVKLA

| SMILES | HDAC6 selectivity (fold) (human recombinant HDAC6) | IC50 (human recombinant HDAC6) [nM] | IC50 (human recombinant HDAC1) [nM] |
| --- | --- | --- | --- |
| C[C@@H]1CN(Cc2ccc(C(=O)NO)cc2)C[C@H](C)N1C(=O)c1ccccc1C1=CCOCC1 [Compound 326, 4-(((3R,5S)-4-(2-(3,6-dihydro-2H-pyran-4-yl)benzoyl)-3,5-dimethylpiperazin-1-yl)methyl)-N-hydroxybenzamide] | >172 | 58 | > 10000 |
| C[C@@H]1CN(Cc2ccc(C(=O)NO)cc2)C[C@H](C)N1Cc1ccccc1-c1ccco1 [Compound 327, 4-(((3R,5S)-4-(2-(furan-2-yl)benzyl)-3,5-dimethylpiperazin-1-yl)methyl)-N-hydroxybenzamide] | >43 | 235 | > 10000 |
| C[C@@H]1CN(Cc2ccc(C(=O)NO)cc2)C[C@H](C)N1Cc1ccccc1-c1ccoc1 [Compound 328, 4-(((3R,5S)-4-(2-(furan-3-yl)benzyl)-3,5-dimethylpiperazin-1-yl)methyl)-N-hydroxybenzamide] | 183 | 102 | 18700 |
| C[C@@H]1CN(Cc2ccc(C(=O)NO)cc2)C[C@H](C)N1Cc1ccccc1-c1ccncc1 [Compound 329, 4-(((3R,5S)-3,5-dimethyl-4-(2-(pyridin-4-yl)benzyl)piperazin-1-yl)methyl)-N-hydroxybenzamide] | 280 | 52 | 14600 |
| C[C@@H]1CN(Cc2ccc(C(=O)NO)cc2)C[C@H](C)N1Cc1ccccc1-c1cccnc1 [Compound 330, 4-(((3R,5S)-3,5-dimethyl-4-(2-(pyridin-3-yl)benzyl)piperazin-1-yl)methyl)-N-hydroxybenzamide] | 749 | 24 | 18000 |
| C[C@@H]1CN(Cc2ccc(C(=O)NO)cc2)C[C@H](C)N1Cc1ccccc1C1=CCOCC1 [Compound 332, 4-(((3R,5S)-4-(2-(3,6-dihydro-2H-pyran-4-yl)benzyl)-3,5-dimethylpiperazin-1-yl)methyl)-N-hydroxybenzamide] | 207 | 106 | 21900 |
| C[C@@H]1CN(Cc2ccc(C(=O)NO)cc2)C[C@H](C)N1C(=O)c1ccc(-c2ccco2)cc1 [Compound 340, 4-(((3R,5S)-4-(4-(furan-2-yl)benzoyl)-3,5-dimethylpiperazin-1-yl)methyl)-N-hydroxybenzamide] | 3 | 606 | 1600 |
| C[C@@H]1CN(Cc2ccc(C(=O)NO)cc2)C[C@H](C)N1Cc1cccc(-c2ccco2)c1 [Compound 342, 4-(((3R,5S)-4-(3-(furan-2-yl)benzyl)-3,5-dimethylpiperazin-1-yl)methyl)-N-hydroxybenzamide] | 456 | 19 | 8700 |
| C[C@@H]1CN(Cc2ccc(C(=O)NO)cc2)C[C@H](C)N1Cc1cccc(-c2ccoc2)c1 [Compound 343, 4-(((3R,5S)-4-(3-(furan-3-yl)benzyl)-3,5-dimethylpiperazin-1-yl)methyl)-N-hydroxybenzamide] | 328 | 27 | 8800 |
| C[C@@H]1CN(Cc2ccc(C(=O)NO)cc2)C[C@H](C)N1Cc1cccc(-c2cccnc2)c1 [Compound 344, 4-(((3R,5S)-3,5-dimethyl-4-(3-(pyridin-3-yl)benzyl)piperazin-1-yl)methyl)-N-hydroxybenzamide] | 481 | 12 | 5800 |
| C[C@@H]1CN(Cc2ccc(C(=O)NO)cc2)C[C@H](C)N1Cc1cccc(-c2ccncc2)c1 [Compound 345, 4-(((3R,5S)-3,5-dimethyl-4-(3-(pyridin-4-yl)benzyl)piperazin-1-yl)methyl)-N-hydroxybenzamide] | 341 | 16 | 5500 |
| C[C@@H]1CN(Cc2ccc(C(=O)NO)cc2)C[C@H](C)N1Cc1cccc(C2=CCOCC2)c1 [Compound 346, 4-(((3R,5S)-4-(3-(3,6-dihydro-2H-pyran-4-yl)benzyl)-3,5-dimethylpiperazin-1-yl)methyl)-N-hydroxybenzamide] | 332 | 25 | 8300 |
| C[C@@H]1CN(Cc2ccc(C(=O)NO)cc2)C[C@H](C)N1Cc1cccc(C2=CCC(C)(C)CC2)c1 [Compound 347, 4-(((3R,5S)-4-((4′,4′-dimethyl-2′,3′,4′,5′-tetrahydro-[1,1′-biphenyl]-3-yl)methyl)-3,5-dimethylpiperazin-1-yl)methyl)-N-hydroxybenzamide] | >25 | 408 | > 10000 |
| C[C@@H]1CN(Cc2ccccc2-c2ccoc2)C[C@H](C)N1Cc1ccc(C(=O)NO)cc1 [Compound 348, 4-(((2S,6R)-4-(2-(furan-3-yl)benzyl)-2,6-dimethylpiperazin-1-yl)methyl)-N-hydroxybenzamide] | 6 | 843 | 4700 |
| C[C@@H]1CN(Cc2ccccc2-c2cccnc2)C[C@H](C)N1Cc1ccc(C(=O)NO)cc1 [Compound 349, 4-(((2S,6R)-2,6-dimethyl-4-(2-(pyridin-3-yl)benzyl)piperazin-1-yl)methyl)-N-hydroxybenzamide] | 1000 | 5 | 5000 |
| C[C@@H]1CN(Cc2ccccc2-c2ccncc2)C[C@H](C)N1Cc1ccc(C(=O)NO)cc1 [Compound 350, 4-(((2S,6R)-2,6-dimethyl-4-(2-(pyridin-4-yl)benzyl)piperazin-1-yl)methyl)-N-hydroxybenzamide] | 17 | 194 | 3300 |
| C[C@@H]1CN(Cc2ccccc2C2=CCOCC2)C[C@H](C)N1Cc1ccc(C(=O)NO)cc1 [Compound 351, 4-(((2S,6R)-4-(2-(3,6-dihydro-2H-pyran-4-yl)benzyl)-2,6-dimethylpiperazin-1-yl)methyl)-N-hydroxybenzamide] | 15 | 351 | 5100 |
| C[C@@H]1CN(Cc2ccccc2C2=CCC(C)(C)CC2)C[C@H](C)N1Cc1ccc(C(=O)NO)cc1 [Compound 352, 4-(((2S,6R)-4-((4′,4′-dimethyl-2′,3′,4′,5′-tetrahydro-[1,1′-biphenyl]-2-yl)methyl)-2,6-dimethylpiperazin-1-yl)methyl)-N-hydroxybenzamide] | >13 | 1060 | 13800 |
| C[C@@H]1CN(Cc2ccc(C(=O)NO)cc2)C[C@H](C)N1Cc1cocn1 [Compound 354, 4-(((3R,5S)-3,5-dimethyl-4-(oxazol-4-ylmethyl)piperazin-1-yl)methyl)-N-hydroxybenzamide] | >2000 | 5 | > 10000 |
| C[C@@H]1CN(Cc2ccc(C(=O)NO)cc2)C[C@H](C)N1Cc1cncnc1 [Compound 355, 4-(((3R,5S)-3,5-dimethyl-4-(pyrimidin-5-ylmethyl)piperazin-1-yl)methyl)-N-hydroxybenzamide] | 20 | 1060 | 21000 |
| C[C@@H]1CN(Cc2ccc(C(=O)NO)cc2)C[C@H](C)N1Cc1cccc(CN2CCOCC2)c1 [Compound 356, 4-(((3R,5S)-3,5-dimethyl-4-(3-(morpholinomethyl)benzyl)piperazin-1-yl)methyl)-N-hydroxybenzamide] | 558 | 22 | 12300 |
| C[C@@H]1CN(Cc2ccc(C(=O)NO)cc2)C[C@H](C)N1Cc1ccc(CN2CCOCC2)cc1 [Compound 376, 4-(((3R,5S)-3,5-dimethyl-4-(4-(morpholinomethyl)benzyl)piperazin-1-yl)methyl)-N-hydroxybenzamide] | >119 | 84 | > 10000 |
